Data on 74 compounds can be found in PubChem BioAssay AID504645 (Southern Research Specialized Biocontainment Screening …, 2011).

“And” between values parts separate entries of the source, which are not always exact repeats. Equal values may be shown once. The source made the active and inactive calls. No rule for the calls is given here. Where a SMILES comes first, the peptide text is derived from it. The star is where a group is joined. Cbz = O=C(OCc1ccccc1)*

Test [1] can be described thus: M tuberculosis H37Rv growth inhibition in absence of glycerol, confirmatory, IC90 (AID 504645).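 Also: bacteria grown one week before the viability dye was added.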 The settings on record: M. tuberculosis H37Rv growth inhibition, glycerol-free medium; at 25 µM (top of the series).
Test [2] deals with M. tuberculosis H37Rv growth inhibition, glycerol-free medium. The description is as above. The settings on record: for IC90: measured here: 90% growth inhibition.

By inhibition is commonly meant the drop in the measured response relative to a control, in per cent. For the compound `Cc1cc(=O)[nH]c(=S)[nH]1`, the inhibition in test [1] is 3.98% (inactive). By IC50 is commonly meant the concentration that gives 50% inhibition. For orientation: IC90 means the point of the concentration-response curve where the effect stands at 90%. A higher IC90 goes with weaker potency. As to `CC[N+](C)(CC)CCCCOc1ccc2c(c1)C(=O)c1cc(OCCCC[N+](C)(CC)CC)ccc1-2`, in test [2], the IC50 was 1320 nM and the IC90 turned out to be 2130 nM. The matching figures for `CC(=NCc1ccc2c(c1)OCO2)C1=C(O)c2ccccc2C1=O`: 330 nM and 2350 nM. As to `O=C(CSc1nc2ccccc2c(=O)[nH]1)NC1CCCCC1`, in test [2], the IC50 was 70 nM and the IC90 was determined as 130 nM. Regarding `Cc1cccc(N2CCN(C(=O)c3ccc(CNc4c(N5CCC(C)CC5)c(=O)c4=O)cc3)CC2C)c1` (stereo not given), the inhibition in test [1] is 4.48% (inactive).

For the compound `Cc1cc(C)n2nc(N)c(N=Nc3ccccc3)c2n1`, in test [2], the half-inhibitory concentration (IC50) was 2490 nM and the IC90 is 3560 nM.

In the case of `Cc1cccc(N2CCN(C(=O)c3ccc(CNc4c(N5CCC(C)CC5)c(=O)c4=O)cc3)CC2)c1C`, the IC90 in test [2] is more than 25000 nM. Regarding `COC(=O)C1CC(=O)N(c2ccc(OCc3ccccc3Cl)cc2)C1` (stereo not given), in test [2], the IC50 is 750 nM and the IC90 is 3010 nM.

As to `CCOC(=O)CSc1ncnc2c1cnn2-c1ccc(C)cc1`, in test [2], the IC50 is 10100 nM and the IC90 was more than 25000 nM. Turning to `O=C(NCCc1ccc(Cl)cc1)c1ccc(CNc2c(N3CCOCC3)c(=O)c2=O)cc1`, in test [2], the IC50 was 5060 nM and the IC90 amounted to 6950 nM. As to `Cc1ccc(C(=O)N/N=C(/CC(=O)c2cccs2)C(F)(F)F)cc1`, in test [2], the IC50 was 2100 nM and the 90% effect concentration (IC90) is 2810 nM. As to `CCOC(=O)COn1c2c(c3c4no[n+]([O-])c4ccc31)CCCC2`, in test [2], the IC50 is 1850 nM and the IC90 was 2860 nM. Turning to `Cc1nc(SCC(=O)NC2CCCCC2)[nH]c(=O)c1C`, in test [2], the IC50 was 670 nM and 2390 nM; the IC90 was 1070 nM and 3730 nM. Regarding `CC1CCN(C(=O)c2ccc(CNc3c(N4CCCC4)c(=O)c3=O)cc2)CC1`, in test [2], the IC50 was 5850 nM and the IC90 is 6690 nM. Take `CC1CCCN(C(=O)c2ccc(CNc3c(N4CCCCC4)c(=O)c3=O)cc2)C1` (stereo not given): in test [2], the IC50 is 2580 nM and the IC90 was more than 25000 nM. Regarding `CCC(C)Nc1ccc(NC(C)CC)cc1` (stereo not given), in test [2], the IC50 was 1270 nM and the IC90 is 1940 nM. The matching figures for `CCc1c(C)nc(SCC(=O)Nc2ccc3c(c2)OCCO3)[nH]c1=O`: 19400 nM and more than 25000 nM. For `COC(=O)c1ccc(CNc2c(N3CCCC3)c(=O)c2=O)cc1`, the inhibition in test [1] is -5.38% (inactive). Still for that read-out and setting: for `Cc1c[nH]c(=S)[nH]c1=O` the value was 3.09% (inactive). As to `CCOC(=O)CSc1ncnc2c1cnn2-c1ccc(Cl)cc1`, in test [2], the IC50 was 4980 nM and the IC90 was more than 25000 nM. Take `Cc1nc(SCC(N)=O)[nH]c(=O)c1C`: the inhibition in test [1] is 2.85% (inactive). Turning to `Cc1cc(Br)ccc1NC(=O)c1cnc(N2CCN(c3ccccn3)CC2)c2ccccc12`, in test [2], the IC50 was 1250 nM and the IC90 was determined as 2000 nM. Consider `Cc1nc(SCC(=O)NC2CCCC2)[nH]c(=O)c1C`, for which, in test [2], the IC50 is 9960 nM and the IC90 worked out at 16000 nM.

Take `Cc1ccc(NC(=O)C2C3/C=C\CCCCC32)cc1C` (stereo not given): in test [2], the IC50 is 1720 nM and the IC90 is more than 25000 nM. `CCOc1ccc(NC(=O)CSc2nc(O)c(C)c(=O)n2-c2ccc(F)cc2)cc1` registered an IC90 in test [2] of more than 25000 nM. In the case of `O=C(NCC(c1cccs1)N1CCOCC1)c1cc([N+](=O)[O-])cc([N+](=O)[O-])c1` (stereo not given), in test [2], the IC50 was 410 nM and the IC90 is 910 nM. As for `CC1CCCN(C(=O)C2CCC(CNc3c(N4CCCCC4)c(=O)c3=O)CC2)C1` (stereo not given), in test [2], the concentration for half-maximal inhibition (IC50) was 19000 nM and the IC90 is more than 25000 nM. Regarding `O=C(c1ccc(CNc2c(N3CCCC3)c(=O)c2=O)cc1)N1CCc2ccccc2C1`, in test [2], the IC50 is 4370 nM and the IC90 was more than 25000 nM. The matching figures for `CCOC(=O)c1ccc(NC(=O)Cn2ncc(Cl)c(Cl)c2=O)cc1`: 440 nM and 1170 nM. Take `Cc1ccc(NC(=O)COC(=O)CCc2c[nH]c3ccccc23)cc1[N+](=O)[O-]`: in test [2], the IC50 is 1920 nM and the IC90 came out at 4350 nM. As for `CCc1ccc(/C=C2/C(=O)N(C)C(=S)N2CC(=O)OC)s1`, in test [2], the IC50 was 1910 nM and the IC90 was determined as 4610 nM. Take `O=C(c1ccc(CNc2c(N3CCOCC3)c(=O)c2=O)cc1)N1CC=C(c2ccccc2)CC1`: in test [2], the IC50 was 1110 nM and the IC90 was 2170 nM. In the same order, the values of `COC(=O)C(C)Oc1ccc(Cc2ncc(C(F)(F)F)cc2Cl)cc1` (stereo not given) are 2620 nM and 4010 nM.

As to `COc1ccc(-n2nnc3c(SCC(=O)OCc4ccccc4)ncnc32)cc1`, in test [2], the IC50 was 2810 nM and the IC90 is more than 25000 nM. In the same order, the values of `CC(=O)c1ccc(NC(=O)c2ccc(CNc3c(N4CCOCC4)c(=O)c3=O)cc2)cc1` are 20000 nM and more than 25000 nM. The matching figures for `CNc1nc(SCc2ccccc2Cl)nc2c1CCCC2`: 1080 nM and 2330 nM.

In the case of `Cc1ccc2c(c1)c(C1=c3ccccc3=NC1=O)c(O)n2C`, in test [2], the 50% inhibitory concentration (IC50) was 1460 nM and the IC90 turned out to be 3610 nM. In the same order, the values of `Cc1ccc2ccc3ccc(C)nc3c2n1` are 530 nM and 780 nM.

Regarding `COc1cc(NC(=O)C/C(C)=N/NC(=O)c2ccccn2)c(OC)cc1Cl`, in test [2], the IC50 is 2780 nM and the concentration for an effect of 90% (IC90) was 7910 nM. In the case of `COC(=O)c1cc(=O)n(-c2ccc(F)cc2)c(=Nc2ccc(F)cc2)s1`, in test [2], the IC50 is 640 nM and the IC90 was 1000 nM. The matching figures for `O=C(/C=C/c1ccccc1)N1CCN(CCN2C(=O)c3cccc4cccc(c34)C2=O)CC1`: 2070 nM and 5380 nM. In the same order, the values of `CCOC(=O)COc1ccc(/C=C2\NC(=S)N(CC)C2=O)cc1` are 2620 nM and 4740 nM.

Consider `CC1CCN(C(=O)C2CCN(c3nnc(-n4cccc4)s3)CC2)CC1`, for which, in test [2], the IC50 is 1640 nM and the IC90 was found to be 3340 nM. In the same order, the values of `CCOC(=O)CNC(=O)[C@H](Cc1ccccc1)NC(=O)OCc1ccccc1` (Cbz-Phe-Gly-OEt) are 2150 nM and 3090 nM.

As for `COC(=O)C(C)Oc1ccc(-c2nccc(-c3ccccn3)n2)cc1` (stereo not given), in test [2], the IC50 is 2640 nM and the concentration for an effect of 90% (IC90) was 4530 nM. In the case of `O=C1C(Br)=Cc2cccc3cccc1c23`, in test [2], the IC50 is 350 nM and the IC90 was found to be 1130 nM.

Regarding `COc1ccc(N2CCN(C(=O)c3ccc(CNc4c(N5CCOCC5)c(=O)c4=O)cc3)CC2)cc1`, in test [2], the IC50 was 3410 nM and the IC90 is more than 25000 nM. In the same order, the values of `Cc1nn2c(NCc3ccccn3)cc(C(C)C)nc2c1-c1ccccc1` are 1970 nM and 2540 nM.

Turning to `CC(C)CCNC(=O)CSc1nc2ccccc2c(=O)[nH]1`, in test [2], the IC50 was 2310 nM and the IC90 came out at 3830 nM. In the same order, the values of `Cc1cccc(/C=C/C(=O)c2ccc([N+](=O)[O-])o2)c1` are 450 nM and 650 nM. The matching figures for `CCC(Sc1ncnc2c1nnn2-c1ccc(F)cc1)C(=O)OC` (stereo not given): 11900 nM and more than 25000 nM. In the same order, the values of `S=c1nc[nH]c2nc[nH]c12` are 1480 nM and 1720 nM. In the case of `c1ccc(/N=C2\N=C(Nc3ccccn3)c3ccccc32)nc1`, in test [2], the IC50 was 170 nM and the IC90 stood at 290 nM.

As for `CCc1c(C)nc(SCC(=O)NC2CCCC2)[nH]c1=O`, in test [2], the IC50 is 2250 nM and the IC90 turned out to be 3210 nM.

`CCOC(=O)CSc1ncnc2c1nnn2-c1ccc(F)cc1`: in test [2], the IC50 was 3640 nM and the IC90 stood at 6160 nM. The matching figures for `O=C(/C=C\c1cccs1)N1CCN(Cc2ccc3c(c2)OCO3)CC1`: 360 nM and 1570 nM. In the same order, the values of `CC(C)OC(=O)CSc1ncnc2c1cnn2-c1ccccc1` are 17900 nM and more than 25000 nM. Consider `CC1CC(C)CN(C(=O)c2ccc(CNc3c(N4CCCC4)c(=O)c3=O)cc2)C1` (stereo not given), for which, in test [2], the IC50 is 6340 nM and the IC90 was more than 25000 nM. Consider `CCOc1ccc(-c2cc(C)[n+](CCc3ccc(OC)c(OC)c3)c(-c3ccc(OCC)cc3)c2)cc1`, for which, in test [2], the IC50 is 660 nM and the IC90 was found to be 1030 nM. In the same order, the values of `CC(C)NC(=O)c1sc(=S)n2c1[nH]c(=O)c1ccc(C(=O)NCCc3ccc(Cl)cc3)cc12` are 310 nM and 530 nM. The matching figures for `CCOC(=O)CSc1ncnc2c1cnn2-c1ccccc1`: 13100 nM and more than 25000 nM.

As to `COC(=O)C(C)Sc1ncnc2c1nnn2-c1ccc(F)cc1` (stereo not given), in test [2], the IC50 was 2420 nM and the IC90 was 4380 nM.

With `O=C(CSc1nc2ccccc2c(=O)[nH]1)NCc1ccc(Cl)cc1`, in test [2], the IC50 is 630 nM and 2190 nM; the IC90 is 900 nM and 3160 nM.

In the case of `O=C(CSc1nc2c(c(=O)[nH]1)CCC2)Nc1ccc(F)cc1`, in test [2], the IC50 is 17100 nM and the IC90 was more than 25000 nM. Regarding `COC(=O)CCc1nc2c(C#N)c(-c3ccc(Cl)cc3)ccn2n1`, in test [2], the IC50 is 2540 nM and the IC90 came to 3800 nM. Turning to `Nc1c(C(=O)NC2CCCCC2)nsc1C(=O)OCC(=O)NC1CCCCC1`, in test [2], the IC50 was 1230 nM and the 90% effect concentration (IC90) came to 2640 nM. In the same order, the values of `COC(=O)CSc1ncnc2c1cnn2-c1ccc(C)cc1C` are 4500 nM and 6950 nM. The matching figures for `CC1CC(C)CN(C(=O)C2CCC(CNc3c(N4CCCCC4)c(=O)c3=O)CC2)C1` (stereo not given): 13300 nM and more than 25000 nM. On to `CCOC(=O)CSc1ncnc2c1cnn2-c1ccc(C)cc1C`, for which, in test [2], the IC50 is 4490 nM and the IC90 came to 6980 nM. In the case of `O=C(c1ccc(CNc2c(N3CCCC3)c(=O)c2=O)cc1)N1CCN(C2CCCCC2)CC1`, the IC90 in test [2] is more than 25000 nM.

On to `CCOC(=O)C(C)Sc1ncnc2c1nnn2-c1ccc(F)cc1` (stereo not given), for which, in test [2], the IC50 was 1200 nM and 4550 nM; the IC90 was 2920 nM and 8280 nM. On to `CCOC1OC(=O)C(Cl)=C1Nc1ccccc1C` (stereo not given), for which, in test [2], the IC50 is 2260 nM and the IC90 stood at 5590 nM. Consider `Cc1cccc(-c2oc3ccc(-c4ccc5c(c4)OCO5)cc3c2C#Cc2cncn2C)c1`, for which, in test [2], the half-maximal inhibitory concentration (IC50) was 1380 nM and the IC90 was determined as 1860 nM. `O=C(c1ccc(CNc2c(N3CCCC3)c(=O)c2=O)cc1)N1CC=C(c2ccccc2)CC1`: in test [2], the IC50 is 2520 nM and the concentration for an effect of 90% (IC90) worked out at 6760 nM.
